From US20130280269A1, “Manipulation of HSP70 and IRE1Alpha Protein Interactions” (National University of Ireland, priority 2010, published 2013)

Legend:
PC12 cells [1] = test: Loss of mitochondrial membrane potential (ΔΨm), TMRE staining and flow cytometry; assay type: cell-based, Rat; conditions: 48 h, thapsigargin 0.25 μM
Procedure: (§1) FIG. 2. Hsp72 prevents ER stress-induced loss of mitochondrial membrane potential and cytochrome c release. (A) The control (Neo) and Hsp72 expressing (Hsp72) PC12 cells were either untreated (Control) or treated with (0.25 μM) Tg for the indicated time and mitochondrial membrane potential was assessed by TRME staining and flow cytometry. A representative image of three independent experiments is shown. (B) The control (Neo) and Hsp72 expressing (Hsp72) PC12 cells were treated (0.25 μM) Tg for indicated time points. Following treatment cells were incubated with TMRE (100 nM). Mitochondrial membrane potential was monitored by measuring the fluorescence intensity at 582 nm (FL2). Average and error bars represent mean±SD from three independent experiments. (C) The control (Neo) and Hsp72 expressing (Hsp72) PC12 cells were treated with (0.25 μM) Tg for the indicated time. Cytosolic extracts were prepared as described in materials and methods and resolved by SDS-PAGE followed by western blotting using antibodies against Cytochrome c and β-actin.
The effect of Hsp72 on the dissipation of ΔΨm and release of cytochrome c to the cytosol upon exposure to ER stress stimuli was evaluated. To quantify ΔΨm, probe tetramethylrhodamine ethyl ester (TMRE, Molecular Probes), a potentiometric fluorescent dye that incorporates into mitochondria in a ΔΨm-dependent manner, was used. Cells were trypsinized and then were either left untreated or treated with 0.25 μM thapsigargin. The cells were then incubated with TMRE for 30 min in the dark and analyzed by flow cytometry using a FACSCalibur instrument. […] The expression of Hsp72 inhibited the loss of ΔΨm (FIG. 2A). At 48 h, loss of ΔΨm was detected in 80-90% of Neo cells treated with thapsigargin or tunicamycin, respectively (FIG. 2B).

PC12 cells [2] = test: Release of cytochrome c into the cytosol, western blot of cytosolic extracts; assay type: cell-based, Rat; conditions: 0.25 μM Tg, 24 h
Procedure: as §1
To further study the involvement of mitochondria in ER stress-induced cell death, the release of cytochrome c into the cytosol was assessed. […]

[3] = target: T1, wild-type Hsp72 (inducible form of Hsp70), stably expressed in PC12 cells (Homo sapiens (Human), UniProt P0DMV8 2-641, limits assumed); test: co-immunoprecipitation with HA-agarose from Hsp72-expressing PC12 cells, western blot (FIG. 5C)
T1 construct: Expressed from a plasmid (gift of Dr. Tomomi Gotoh) in rat PC12 cells and tested in cell lysates by co-immunoprecipitation; also called Hsp72 WT; inducible Hsp70
Procedure: FIG. 5. Hsp72 forms a protein complex with IRE1α, and ATPase domain of HSP72 is critical for IRE1α binding. (A) Schematic diagram for IRE1α structure domains and expression constructs. (B) Schematic diagram for Hsp72 structure domains and expression constructs. (C) Hsp72 expressing PC12 cells (Hsp2) were transfected with empty vector (EV) or expression vectors for IRE1α FL-HA or IRE1α ΔC-HA. After 24 h, cells were either left untreated (UT) or treated with (0.25 μM) Tg for 12 h and then the co-precipitation of Hsp72 with IRE1α FL-HA or IRE1α ΔC-HA was evaluated by IP and western blot. (D) PC12 cells expressing the indicated Hsp72 constructs were transfected with IRE1α FL-HA. […] Co-precipitation of wild-type, ΔATPase and ΔEEVD mutant of Hsp72 with IRE1α FL-HA was evaluated by IP and western blot. […] After 48 hr, IRE1α FL-HA was immunoprecipitated and its association with endogenous Hsp72 was assessed by western blot. (F) Endogenous Hsp72 was immunoprecipitated from HEK 293 cells transiently transfected with IRE1α FL-HA expression vector or empty vector (EV), and its association with IRE1α was determined by western blot analysis. […]
Interaction of Hsp72-IRE1α was determined by co-immunoprecipitation assays. […] Protein complexes were extracted by boiling the beads with 2× lane marker buffer and analysed by western blotting as described above using the primary antibody IRE1α (Cell Signalling Cat#3294S). […]

T1 sequence (P0DMV8 2-641 limits assumed): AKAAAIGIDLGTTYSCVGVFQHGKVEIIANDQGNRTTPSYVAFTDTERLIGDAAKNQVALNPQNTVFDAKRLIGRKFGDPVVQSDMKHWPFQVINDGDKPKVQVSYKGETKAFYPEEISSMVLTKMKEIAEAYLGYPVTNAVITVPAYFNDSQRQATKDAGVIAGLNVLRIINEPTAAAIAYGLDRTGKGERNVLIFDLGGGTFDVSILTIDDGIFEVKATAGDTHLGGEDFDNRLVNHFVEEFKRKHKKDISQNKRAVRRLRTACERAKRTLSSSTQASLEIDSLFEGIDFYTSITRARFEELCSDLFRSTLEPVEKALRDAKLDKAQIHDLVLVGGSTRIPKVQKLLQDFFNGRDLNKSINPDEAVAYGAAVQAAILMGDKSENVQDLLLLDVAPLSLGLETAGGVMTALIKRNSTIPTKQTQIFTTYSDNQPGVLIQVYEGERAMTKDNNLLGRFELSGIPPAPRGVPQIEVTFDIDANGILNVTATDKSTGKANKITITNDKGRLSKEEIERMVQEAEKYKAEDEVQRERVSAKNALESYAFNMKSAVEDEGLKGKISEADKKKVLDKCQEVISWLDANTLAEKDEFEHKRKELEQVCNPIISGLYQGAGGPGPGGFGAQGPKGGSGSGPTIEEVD

Molecule: tunicamycin
- loss of ΔΨm, cells (PC12 cells [1]; Hsp72 expressing PC12 cells): 50%
- loss of ΔΨm, cells (PC12 cells [1]; control (Neo) PC12 cells): 90%

Molecule: C/C=C(/C)C(=O)O[C@H]1C(C)=C2[C@H]([C@@H]1OC(=O)CCCCCCC)[C@@](C)(OC(C)=O)C[C@H](OC(=O)CCC)[C@@]1(O)[C@H]2OC(=O)[C@@]1(C)O [thapsigargin]
- loss of ΔΨm, cells (PC12 cells [1]; Hsp72 expressing PC12 cells): 50%
- loss of ΔΨm, cells (PC12 cells [1]; control (Neo) PC12 cells): 80%
- release of cytochrome c induced by thapsigargin (PC12 cells [2]; Hsp72 expressing PC12 cells, compared with Neo cells): significantly reduced
- release of cytochrome c from mitochondria to the cytoplasm (PC12 cells [2]; control (Neo) PC12 cells): triggered release of cytochrome c

B1: IRE1α ΔC-HA (enzyme)
chain: IFGSTSTVTLPETLLFVSTLDGSLHAVSKRTGSIKWTLKEDPVLQVPTHVEEPAFLPDPNDGSLYTLGSKNNEGLTKLPFTIPELVQASPCRSSDGILYMGKKQDIWYVIDLLTGEKQQTLSSAFADSLCPSTSLLYLGRTEYTITMYDTKTRELRWNATYFDYAASLPEDDVDYKMSHFVSNGDGLVVTVDSESGDVLWIQNYASPVVAFYVWQREGLRKVMHINVAVETLRYLTFMSGEVGRITKWKYPFPKETEAKSKLTPTLYVGKYSTSLYASPSMVHEGVAVVPRGSTLPLLEGPQTDGVTIGDKGECVITPSTDVKFDPGLKSKNKLNYLRNYWLLIGHHETPLSASTKMLERFPNNLPKHRENVIPADSEKKSFEEVINLVDQTSENAPTTVSRDVEEKPAHAPARPEAPVDSMLKDMATIILSTFLLIGWVAFIITYPLSMHQQQQLQHQQFQKELEKIQLLQQQQQQLPFH
notes: HA-tagged IRE1α lacking the cytosolic C-terminal region; also called IRE1α DC-HA; not shown: HA tag
- binding result [3]: no binding
